Tests used:
PDE IV = test: Inhibition of PDE4 activity (method of Bauer and Schwabe, microtiter plates); assay type: biochemical
Source text: The activity test can be carried out, for example, according to the method of Bauer and Schwabe. For this, the method is adapted to microtiter plates (Naunyn-Schmiedeberg's Arch. Pharmacol. 1980, 311, 193-198). The PDE reaction takes place in the first step here. In a second step, the resulting 5′-nucleotide is cleaved by a 5′-nucloetidase of the snake venom of Crotalus atrox to the uncharged nucleoside. In the third step, the nucleoside is separated from the remaining charged substrate on ion-exchange columns. The columns are eluted directly into minivials, into which 2 ml of scintillator fluid are additionally added for counting, using 2 ml of 30 mM ammonium formate (pH 6.0).

melting point: 229 to 231 °C
SMILES: COc1cc2c(cc1OC)[C@@H]1CCCC[C@@H]1[N+]([O-])=C2c1ccc(S(C)(=O)=O)cc1 [Compound 1, (−)-cis-8,9-Dimethoxy-6-(4-methanesulfonylphenyl)-1,2,3,4,4a,10b-hexahydrophenanthridine-N-oxide]
-log IC50 (PDE IV): 6.09
